In publication PMC7822874, “Chemoprotective antimalarials identified through quantitative high-throughput screening of Plasmodium blood and liver stage parasites” (Scientific Reports, 2021):
Values joined by “and” are separate entries in the source; they are usually repeats but may differ in a detail not shown here. Identical values can stand only once.

Tests used:
[1] = tested on: Plasmodium falciparum Dd2 asexual blood stage parasites; assay: microbe, parasite or virus in culture; parameters: species or system Plasmodium falciparum Dd2 in human erythrocytes; single determination (one 11-point concentration-response curve); conditions: Plasmodium falciparum, DD2, Erythrocyte, 72 h; read-out: AC50
[2] = in vitro; conditions: human, n = 1
[3] = tested on: P. falciparum Dd2 (clone B2) asexual blood stage parasites; assay: P. falciparum Dd2 asexual blood stage SYBR Green-I 72 h proliferation assay (qHTS); format: cell-based, Plasmodium falciparum; conditions: Plasmodium falciparum, DD2, Dd2 parental; Hill fit, averaged from three independent replicates; top concentration 29 µM; read-out: Average AC50 (Log[M]), Dd2 (converted)
[4] = tested on: P. falciparum Dd2 Cytb G131S; assay: SYBR Green ABS proliferation assay, NCGC00374598 selected clone C11; format: cell-based, Plasmodium falciparum; conditions: Plasmodium falciparum, DD2, […]; averaged from three independent replicates; top concentration 29 µM; read-out: Average AC50 (Log[M]), NCGC00374598 clone C11 (Cytb G131S) (converted)
In short: (§1)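 Drug-selected P. falciparum Dd2 clones carrying Cytb mutations, obtained by limiting-dilution cloning, grown in RBCs at 37 °C under 5% CO2/5% O2/90% N2. Growth read by SYBR Green-I fluorescence at 72 h and normalized to controls.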

[5] = tested on: P. falciparum Dd2 Cytb V259L; assay: SYBR Green ABS proliferation assay, NCGC00473217 selected clone F06; format: cell-based, Plasmodium falciparum; conditions: Plasmodium falciparum, DD2, […]; averaged from three independent replicates; top concentration 29 µM; read-out: Average AC50 (Log[M]), NCGC00473217 clone F06 (Cytb V259L) (converted)
In short: as §1

[6] = tested on: P. falciparum Dd2 Cytb A122D; assay: SYBR Green ABS proliferation assay, NCGC00473217 selected clone F12; format: cell-based, Plasmodium falciparum; conditions: Plasmodium falciparum, DD2, […]; averaged from three independent replicates; top concentration 29 µM; read-out: Average AC50 (Log[M]), NCGC00473217 clone F12 (Cytb A122D) (converted)
In short: as §1

[7] = tested on: P. falciparum Dd2 Cytb F123L; assay: SYBR Green ABS proliferation assay, NCGC00473217 selected clone G08; format: cell-based, Plasmodium falciparum; conditions: Plasmodium falciparum, DD2, […]; averaged from three independent replicates; top concentration 29 µM; read-out: Average AC50 (Log[M]), NCGC00473217 clone G08 (Cytb F123L) (converted)
In short: as §1

[8] = tested on: T1, Plasmodium falciparum Dd2-attB (parental line), asexual blood stages; assay: microbe, parasite or virus in culture; parameters: replicate k of 3 (each line is one of three independent assays; the three lines of one compound and parasite line follow each other); conditions: 72 h; n = 1
T1 construct: Dd2-attB, the isogenic parental line
In short: (§2)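 Three independent runs, compound subset only; parental vs ScDHODH line compared by two-sided Student's t-test.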

[9] = tested on: T2, Plasmodium falciparum Dd2-attB-ScDHODH (transgenic line expressing yeast DHODH), asexual blood stages; assay: organism not typed; parameters: replicate k of 3 (each line is one of three independent assays; the three lines of one compound and parasite line follow each other); conditions: 72 h, n = 1
T2 construct: Dd2-attB-ScDHODH, the transgenic line that expresses yeast DHODH
In short: as §2

| Compound | CC50 at 48 h ([2]; HepG2 cells) | also measured |
| --- | --- | --- |
| C[n+]1c2ccccc2nc2ccc(NCCO)cc21.[O-][Cl+3]([O-])([O-])[O-] |  | AC50 [1]: 1.19 µM; CC50 at 48 h ([2]; hepg2): 13.7 µM |
| c1ccc(-c2nc(NCc3ccco3)c3ccccc3n2)nc1 [MLS000040057-01] | 27.3 µM | AC50 [1]: 5.96 µM |
| Cc1cc(O)c(-c2cc(C(=O)Nc3ccc(S(=O)(=O)N4CCOCC4)cc3)[nH]n2)cc1C [MLS000042703-01] | 27.3 µM | AC50 [1]: 1.68 µM |
| CCn1c(C)nc2cc(-c3nc4n(n3)Cc3ccccc3-4)ccc21 [MLS000054270-01] | 12.2 µM |  |
| CCCOC(=O)c1[nH]c2c(c1C)C(=O)CC(c1cc(OC)c(OC)c(OC)c1)C2 (centres unmarked) [MLS000116504-01] | 21.7 µM | AC50 [1]: 6.68 µM |
| COc1cnc(-c2ccccn2)nc1Sc1ccc(Cl)cc1 [MLS000325700-01] | 24.3 µM | AC50 [1]: 5.96 µM |
| COc1cc(C(=O)N/N=C(/c2ccccc2)c2ccccn2)cc(OC)c1OC [MLS000390992-01] | 10.9 µM |  |
| Cc1sc(NC(=O)c2ccco2)c(C(c2cccnc2)N2CCC(C)CC2)c1C (centres unmarked) [MLS000536186-01] | 8.62 µM | AC50 [1]: 5.31 µM |
| CC1CCN(S(=O)(=O)c2ccc3c(c2)C(=NO)c2cc(S(=O)(=O)N4CCC(C)CC4)ccc2-3)CC1 [MLS000551434-01] |  | AC50 [1]: 1.68 µM; CC50 at 48 h ([2]; hepg2): 21.7 µM |
| CC1=CC(=CNNC(=O)c2n[nH]cc2Br)C(=O)C=C1 [MLS000555044-01] | 19.3 µM |  |
| Cc1cc(NCc2ccccn2)n2nc(C)c(-c3ccc(Cl)cc3)c2n1 [MLS000559839-01] | 9.68 µM |  |
| O=C(/C(=C/c1ccc(Cl)cc1)c1nc2ccccc2[nH]1)c1cccs1 [MLS000565128-01] | 24.3 µM | AC50 [1]: 2.11 µM |
| Cc1c(NN=C(C#N)C(=O)c2ccccc2)c(=O)n(-c2ccccc2)n1C [MLS000567622-01] | 12.2 µM | AC50 [1]: 6.68 µM |
| COc1ccc(Nc2nc(N3CCCCC3)c3ccccc3n2)cc1 [MLS000569818-01] | 30.6 µM |  |
| Cc1[nH]n(-c2ccccc2)c(=O)c1/C=N/Nc1nncc(-c2ccccc2)n1 [MLS000579075-01] | 13.7 µM | AC50 [1]: 4.22 µM |
| COc1cnc(-c2ccccn2)nc1Sc1ccccc1 [MLS000692209-01] | 24.3 µM |  |
| N#Cc1c(Cl)nsc1NC(=O)c1ccccc1 [MLS000696348-01] | 13.7 µM |  |
| c1csc(-c2cn3ccc4ccccc4c3n2)c1 [MLS000711806-01] | 15.3 µM |  |
| CCCCC(=O)NC(c1cccs1)c1cc(Cl)c2cccnc2c1O (centres unmarked) [MLS000714525-01] | 13.7 µM |  |
| C=C1C(=O)O[C@@H]2C[C@@H](C)[C@@H]3C=CC(=O)[C@@]3(C)[C@@H](OC(=O)CC(=O)O[C@H]3[C@@H]4C(=C)C(=O)O[C@@H]4C[C@@H](C)[C@@H]4C=CC(=O)[C@]43C)[C@H]12 [MLS000728515-01] |  | CC50 at 48 h ([2]; hepg2): 10.9 µM |
| Oc1ccccc1C(Nc1nccs1)c1ccc2cccnc2c1O (centres unmarked) [MLS000759877-01] | 19.3 µM |  |
| Cc1nn2c(NCc3ccccn3)cc(C(C)C)nc2c1-c1ccccc1 [MLS000762881-01] | 12.2 µM |  |
| O=C1C=CC(Cl)=CC1=CNNC(=O)c1ccncc1 [MLS000766661-01] | 12.2 µM |  |
| COc1cc(OC)cc(C(=O)Oc2c(CN3CCOCC3)cc(Cl)c3cccnc23)c1 [MLS000770997-01] | 12.2 µM |  |
| CCOC(=O)C1=C(c2ccccc2)N=C(N)NC1c1ccc(OCc2ccc(Cl)cc2)c(OC)c1 (centres unmarked) [MLS000771452-01] | 34.3 µM |  |
| CC(NNC(=O)C12CCC(C)(C(=O)O1)C2(C)C)=C1C=CC=CC1=O (centres unmarked) [MLS000778293-01] | 12.2 µM |  |

| Compound | CC50 at 48 h ([2]; HepG2 cells) | also measured |
| --- | --- | --- |
| COC1=CC=CC(=CNNc2cc(N3CCOCC3)ncn2)C1=O [MLS001202693-01] | 12.2 µM |  |
| CC(=O)NC(c1ccccc1)c1cc(Cl)c2cccnc2c1O (centres unmarked) [MLS001210949-01] | 12.2 µM |  |
| CCCCC(=O)NC(c1ccc(Cl)cc1Cl)c1ccc2cccnc2c1O (centres unmarked) [MLS001212967-01] | 21.7 µM |  |
| C=C1C(=O)OC2CC(C)C3C=CC(=O)C3(C)C(O)C12 (centres unmarked) [MLS002701927-01] |  | CC50 at 48 h ([2]; hepg2): 15.3 µM |
| CCCOc1ccc(C(=O)Nc2ccc(-c3cc4ccccc4oc3=O)c(C)c2)cc1 [NCGC00098245-01] | 24.3 µM |  |
| COc1ccc(CCNc2nc3c(c(=O)n(C)c(=O)n3C)n2Cc2ccc(F)cc2)cc1OC [NCGC00102121-01] | 13.7 µM |  |
| CC(=O)c1cccc(N[S+](=O)([O-])c2cc(-c3cnc(C4CC4)o3)ccc2C)c1 [NCGC00131168-01] | 30.6 µM |  |
| CCNc1nc2c(c(=O)n(C)c(=O)n2C)n1Cc1ccc(F)cc1 [NCGC00142036-01] | 21.7 µM |  |
| O=C(CCCCCCC(=O)Nc1ccccc1)NO [NCGC00168085-01] | 19.3 µM |  |
| Cc1cc(Cl)ccc1-c1ccc(CNC2CN(C(=O)OC(C)(C)C)C2)cc1 [NCGC00374248-01] | 34.3 µM |  |
| CC1=C[C@@H](CN2CCN(c3ccccn3)CC2)[C@H](C(C)C)C[C@H]1Cc1nnc(C)o1 [NCGC00392770-01] | 35.3 µM |  |
| O=C(Nc1ccc(Cl)cc1)c1nc2c(o1)CCN(Cc1cccc(O)c1)CC2 [NCGC00413336-01] | 17.7 µM |  |
| O=C(NCC1CC1)c1nc2c(o1)CCN(Cc1cccc(F)c1)CC2 [NCGC00413365-01] | 44.4 µM |  |
| COCCN1Cc2ccc(NCC(C)C)nc2C(C)(C(=O)Nc2cccc(F)c2)C1 (centres unmarked) [NCGC00414615-01] | 35.3 µM |  |
| CC(C)c1cc(C(=O)NC2CCN(c3ncccc3C#N)CC2)n(C)n1 [NCGC00431169-01] | 19.3 µM |  |
| O=C(Cc1c[nH]c2ccccc12)N1CCc2c([nH]c(-c3ccc(F)cc3)nc2=O)C1 [NCGC00439989-01] | 0.00432 µM |  |
| Cc1cc(C)n(CCC(=O)N2CC(Oc3ccc(-c4nc(-c5ccccc5)no4)cc3)C2)n1 [NCGC00441169-01] | 10.9 µM |  |
| COc1ccc(-c2nc(CC3CCN(C(=O)c4n[nH]c(=O)c5ccccc45)C3)no2)cc1 (centres unmarked) [NCGC00443252-01] | 19.3 µM |  |
| O=C(c1ccc2[nH]ccc2c1)N1CCC2(CC1)NC(c1ccc(Br)cc1)=NO2 [NCGC00446987-01] | 24.3 µM |  |
| CC(C)c1cccc(NC(=O)c2ccc(CN3C(=O)NC4(CCOCC4)C3=O)cc2)c1 [NCGC00454607-01] | 24.3 µM |  |
| O=C(Cc1ccccc1F)N1CC(Oc2ccc(-c3noc(-c4cccnc4)n3)cc2)C1 [NCGC00458031-01] | 19.3 µM |  |
| CCC(C)NC(=O)N1CC(Oc2ccc(-c3noc(C4CCOCC4)n3)cc2)C1 (centres unmarked) [NCGC00458059-01] |  | CC50 at 48 h ([2]; hepg2): 12.2 µM |
| CCc1ccc(NC(=O)N2CC(C(=O)N(C)C)C3(CCOCC3)C2)cc1 (centres unmarked) [NCGC00471776-01] | 0.00769 µM |  |
| CCCN1C(CC(C)C)=N[S+](=O)([O-])c2cc(NC(=O)c3ccco3)ccc21 [NCGC00473219-02] |  | AC50 [3]: 3.17e-06 M; AC50 [4]: 3.17e-06 M; AC50 [5]: 5.22e-06 M; AC50 [6]: 3.56e-06 M; AC50 [7]: 3.17e-06 M; Individual replicates / Log AC50 (M) [8]: -6.2986 Log AC50 (M) and -5.9986 Log AC50 (M) and -6.0986 Log AC50 (M); Individual replicates / Log AC50 (M) [9]: -5.7486 Log AC50 (M) and -5.5986 Log AC50 (M) and -5.8986 Log AC50 (M) |
| CCCN1C(CC(C)C)=N[S+](=O)([O-])c2cc(NC(=O)c3ccc(C)o3)ccc21 [NCGC00510048-01] |  | AC50 [3]: 9.66e-06 M; AC50 [4]: 7.38e-06 M; AC50 [5]: 7.38e-06 M; AC50 [6]: 7.96e-06 M; AC50 [7]: 6.58e-06 M; Individual replicates / Log AC50 (M) [8]: -5.5486 Log AC50 (M) and -5.3486 Log AC50 (M) and -5.1986 Log AC50 (M); Individual replicates / Log AC50 (M) [9]: -5.1486 Log AC50 (M); AC50 ([9]; read-out: Individual replicates / Log AC50 (converted)): 7.1 µM |
